Results: patent US20250127778A1, “CANCER IMMUNOTHERAPY COMPOSITION CONTAINING INTERACTION INHIBITOR OF STING AND TRIM29 AS ACTIVE INGREDIENT” (SPARK BIOPHARMA, INC, priority 2021, published 2025)

Tests used:
CT26 tumor = assay: Tumor growth in CT26 in vivo syngeneic mouse model; details: CT26, intratumoral, FIG. 23
Protocol: 2×10^5 CT26 cell lines were prepared in 50 μL culture medium and subcutaneously injected. […] The cGAMP solution was manufactured with a final composition of PEG400:distilled water=40:60, and 20 μL was injected each time. The solution of the compound of Formula 1 was manufactured with the composition of DMSO:PEG400:distilled water=2:40:58, and 20 μL was injected each time. The cGAMP solution was injected once every two days, four times in total, and the solution of the compound of Formula 1 was injected once every four days, two times in total, starting with the second administration of cGAMP. The size of the tumor was measured by using calipers every two days, and the volume thereof was calculated as (length×width×height/2). The body weight of the mice was also measured every two days.

[1] = test system: bone-marrow derived dendritic cells (BMDC) and OT-1 T cells; assay: BMDC antigen presentation to OT-1 T cells with OVA antigen; assay type: cell-based, mouse; details: OVA antigen directly treated, FIG. 18
Protocol: It was confirmed that the compound of Formula 1 increased the antigen presentation efficacy of bone-marrow derived dendritic cells (BMDC) of a STING agonist to cytotoxic T cells (CD8^+ T cells).
Specifically, mouse bone marrow-derived cells were obtained from the femur and tibia of 8-week-old female C57BL/6 mice. 2×10^6 of cells were cultured in 2 mL of a MLR medium (RPMI 1640 medium supplemented with 10% FBS, 1% 1M HEPES, 1% glutamine, and 1% antibiotic-antimycotic) supplemented with 10 ng/ml mGM-CSF and 5 ng/ml IL-4 to be differentiated into dendritic cells (BMDC). On the third day from the start of cell culturing, 2 mL of the MLR medium was added. Additionally, on the sixth day, 2×10^6 dendritic cells were treated with 50 μg/mL OVA protein and/or 100 ng/ml lipopolysaccharide (LPS), and cGAMP and/or the compound represented by Formula 1 at various concentrations. Thereafter, the cells were cultured at 37° C. in a 5% CO2 incubator for 24 hours, and then flow cytometry of dendritic cell activation markers (CD80, CD86, MHC II) was performed. Subsequently, 5×10^4 dendritic cells were incubated with 2×10^5 CFSE-labeled OT-1 T cells (OVA-specific CD8^+ T cells) to observe OT-1 T cell proliferation.

STING [2] = biological target: STING (Homo sapiens, UniProt Q86WV6); assay: Western blotting of STING under co-treatment with MG132, actinomycin D or cycloheximide; assay type: cell-based
Text: In addition, in order to cross-validate the results of the ELISA experiment, it was confirmed whether the STING increasing effect of the compound of Formula 1 was disappeared when ubiquitinated proteins were prevented from being degraded by treatment with MG132.
In addition, in order to exclude the possibility that the increase in STING expression by the compound of Formula 1 can occur through cellular mechanisms other than ubiquitin-mediated reactions, the transcription inhibitor actinomycin D (ActD) and the ribosome translation inhibitor cycloheximide (CHX) were co-treated with the compound of Formula 1, and whether the STING increase effect was still maintained was confirmed by using the Western blotting method.

CD8+ T cells = assay: T cell death analysis (Annexin V/7-AAD) of CD8+ T cells; assay type: cell-based; details: alone or in combination with cGAMP, 24 hours; FIG. 21
Protocol: CD8^+ T cells were obtained from the lymph nodes of C57BL/6 mice and separated by using MACS. CD8^+ T cells were activated on plates pre-coated with 1 μg/mL anti-CD3 and 0.5 μg/mL of anti-CD28 in the presence of 5 ng/ml of IL-2. After incubation for 24 hours in a 5% CO2 incubator at 37° C., activated CD8^+ T cells were treated with cGAMP and/or the compound of Formula 1 in various concentrations and incubated for additional 24 hours. The cells were harvested and stained with Annexin V/7-AAD to observe cell death. Data shown refer to at least three independent experiments.

STING [3] = biological target: T1, STING (Mus musculus, UniProt Q3TBT3); assay: Western blotting of intracellular STING in Raw264.7 cells; assay type: cell-based; design: endogenous in cells; host or cells: Raw264.7; details: concentration-dependent, FIG. 16
T1 sequence (Q3TBT3 1-378): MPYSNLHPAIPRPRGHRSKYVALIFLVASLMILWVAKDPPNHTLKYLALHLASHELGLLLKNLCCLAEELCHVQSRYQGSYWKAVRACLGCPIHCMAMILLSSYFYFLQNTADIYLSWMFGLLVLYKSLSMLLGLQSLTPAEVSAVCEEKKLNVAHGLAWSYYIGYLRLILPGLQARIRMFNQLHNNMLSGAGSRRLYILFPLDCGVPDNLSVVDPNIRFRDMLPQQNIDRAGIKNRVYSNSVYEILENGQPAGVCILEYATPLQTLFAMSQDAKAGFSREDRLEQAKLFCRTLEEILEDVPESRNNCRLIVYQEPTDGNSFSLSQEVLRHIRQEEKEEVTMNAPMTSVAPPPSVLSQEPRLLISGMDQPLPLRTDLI

[4] = combination with cGAMP compared with the control group

STING (Homo sapiens, UniProt Q86WV6), sequence (Q86WV6 whole entry H232R, species assumed): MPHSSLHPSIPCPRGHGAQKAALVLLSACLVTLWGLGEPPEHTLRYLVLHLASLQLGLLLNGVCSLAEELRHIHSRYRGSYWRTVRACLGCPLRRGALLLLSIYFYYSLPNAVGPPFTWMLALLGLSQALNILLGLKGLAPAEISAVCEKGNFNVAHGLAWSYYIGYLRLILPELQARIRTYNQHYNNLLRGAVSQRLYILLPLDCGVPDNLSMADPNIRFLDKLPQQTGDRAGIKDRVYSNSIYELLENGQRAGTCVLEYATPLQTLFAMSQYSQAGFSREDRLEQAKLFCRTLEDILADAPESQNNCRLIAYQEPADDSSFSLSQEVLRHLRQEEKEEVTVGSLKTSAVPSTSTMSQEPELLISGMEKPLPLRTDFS

Compound: COc1ccc(CC2=CN(c3ccc(C(=O)NC[C@H]4CCCO4)cc3[N+](=O)[O-])[C@H](C(C)C)C(=O)N2Cc2ccc(O)cc2)cc1 [Formula 1, 4-((R)-4-(4-hydroxybenzyl)-2-isopropyl-5-(4-methoxybenzyl)-3-oxo-3,4-dihydropyrazin-1 (2H)-yl)-3-nitro-N-(((R)-tetrahydrofuran-2-yl)methyl)benzamide]
- tumor growth (CT26 tumor; combination with cGAMP compared with single treatment with cGAMP): inhibited in a concentration-dependent manner
- tumor growth (CT26 tumor; [4]): inhibited
- weight of the tumor extracted on the final day (CT26 tumor; [4]): reduced
- OT-1 T cell proliferation (BMDC activation by cGAMP and antigen presentation efficacy) [1]: promoted cell proliferation in a concentration-dependent manner
- intracellular amount of STING under transcription and translation inhibition (STING [2]; co-treated with actinomycin D (ActD) and cycloheximide (CHX), Western blotting, FIG. 10): still increased the intracellular amount of STING
- STING amount under MG132 treatment (STING [2]; co-treated with proteasome inhibitor MG132, Western blotting, FIG. 9): STING was not increased
- death of cytotoxic T cells (CD8+ T cells): did not induce or promote the death of cytotoxic T cells
- intracellular amount of STING (STING [3]): increased
